Literature values, collected in patent US4296101A, “Antibiotic kristenin” (E. R. Squibb & Sons, Inc., priority 1978, dated 1981).

System: gram positive bacteria
Settings: stated by Okazaki et al., Journal of Antibiotics, Vol. 28, No. 9, pages 717-719

CCC(N)C(O)C(O)C(C)C(=O)NC(CC(C)C)C1Cc2cccc(O)c2C(=O)O1 (stereo not shown) [baciphelacin]
active against gram positive bacteria: active against gram positive bacteria
